Source: the supplement of paper PMC9013687

Experiments:
[1] = tested on: Danio rerio embryo; experiment: EC20 Yolk sac size_Increase; higher = less potent; details: exposure time: 4 dpf
Protocol: (§1)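 Zebrafish embryos (UFZ-OBI strain) were exposed from 2 hpf for 48 h (2 dpf) or 96 h (4 dpf) at 28 °C; spontaneous tail coiling was scored at 25 hpf. Morphological features from automated image analysis (FishInspector), heart rate and locomotor response were fitted with drc models. Quantal endpoints were dichotomised at 2.5 SD from controls and fitted with a log-logistic model; heart rate, pigmentation and STC were normalised to the replicate control mean. Betamethasone was tested as betamethasone dipropionate, diflorasone as diflorasone diacetate.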

[2] = tested on: Danio rerio embryo; experiment: EC20 Body length_Decrease; higher = less potent
Protocol: as §1

[3] = tested on: Danio rerio embryo; experiment: EC20 Any effect; higher = less potent
Protocol: as §1

[4] = tested on: Danio rerio embryo; experiment: EC10 Pericard size_Increase; higher = less potent; details: exposure time: 4 dpf
Protocol: as §1

[5] = tested on: Danio rerio embryo; experiment: EC20 LMR dark; higher = less potent; details: exposure time: 4 dpf
Protocol: as §1

[6] = tested on: Danio rerio embryo; experiment: EC50 Otolith-eye distance_Decrease; details: exposure time: 4 dpf
Protocol: as §1

[7] = tested on: Danio rerio embryo; experiment: EC50 Curvature_Increase
Protocol: as §1

[8] = tested on: Danio rerio embryo; experiment: EC10 LMR dark; higher = less potent; details: exposure time: 4 dpf
Protocol: as §1

[9] = tested on: Danio rerio embryo; experiment: EC20 Pericard size_Increase; higher = less potent; details: exposure time: 4 dpf
Protocol: as §1

[10] = tested on: Danio rerio embryo; experiment: EC10 Otolith-eye distance_Decrease; higher = less potent; details: exposure time: 4 dpf
Protocol: as §1

[11] = tested on: Danio rerio embryo; experiment: EC10 Curvature_Increase; higher = less potent
Protocol: as §1

[12] = tested on: Danio rerio embryo
Protocol: as §1

[13] = tested on: Danio rerio embryo; experiment: EC20 Eye-jaw distance_Decrease; higher = less potent; details: exposure time: 4 dpf
Protocol: as §1

[14] = tested on: Danio rerio embryo; experiment: EC20 Bladder size_Decrease; higher = less potent; details: exposure time: 4 dpf
Protocol: as §1

[15] = tested on: Danio rerio embryo; experiment: EC20 Otolith-eye distance_Decrease; higher = less potent; details: exposure time: 4 dpf
Protocol: as §1

[16] = tested on: Danio rerio embryo; experiment: EC10 Bladder size_Decrease; higher = less potent; details: exposure time: 4 dpf
Protocol: as §1

[17] = tested on: Danio rerio embryo; experiment: EC20 Curvature_Increase; higher = less potent
Protocol: as §1

[18] = tested on: Danio rerio embryo; experiment: EC50 Pericard size_Increase; details: exposure time: 4 dpf
Protocol: as §1

[19] = tested on: Danio rerio embryo; experiment: EC50 Body length_Decrease
Protocol: as §1

[20] = tested on: Danio rerio embryo; experiment: EC50 Yolk sac size_Increase; details: exposure time: 4 dpf
Protocol: as §1

[21] = tested on: Danio rerio embryo; experiment: EC10 Body length_Decrease; higher = less potent
Protocol: as §1

[22] = tested on: Danio rerio embryo; details: exposure time: 4 dpf
Protocol: as §1

[23] = tested on: Danio rerio embryo; experiment: EC10 Any effect; higher = less potent
Protocol: as §1

[24] = tested on: Danio rerio embryo; experiment: spontaneous tail coiling frequency (coils/min/embryo); higher = more spontaneous movement; details: 25 hpf
Protocol: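 Spontaneous tail coilings of zebrafish embryos exposed from 2 hpf were recorded at 24-25 hpf in 1-min videos and detected by a KNIME workflow from grey-value variance. Betamethasone was tested as the dipropionate, diflorasone as the diacetate.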

[25] = tested on: Danio rerio embryo; experiment: EC10 Yolk sac size_Increase; higher = less potent; details: exposure time: 4 dpf
Protocol: as §1

[26] = tested on: Danio rerio embryo; experiment: EC50 Eye-jaw distance_Decrease; details: exposure time: 4 dpf
Protocol: as §1

[27] = tested on: Danio rerio embryo; experiment: EC50 Bladder size_Decrease; details: exposure time: 4 dpf
Protocol: as §1

[28] = tested on: Danio rerio embryo; experiment: EC10 Eye-jaw distance_Decrease; higher = less potent; details: exposure time: 4 dpf
Protocol: as §1

Structure (SMILES): C[Si](Cn1cncn1)(c1ccc(F)cc1)c1ccc(F)cc1 [Flusilazole]
- EC20 Yolk sac size Increase [1]: 5.53 µM
- EC20 Body length Decrease ([2]; exposure time: 2 dpf): 8.01 µM
- EC20 Body length Decrease ([2]; exposure time: 4 dpf): 2.55 µM
- EC20 Any effect ([3]; exposure time: 2 dpf): 6.04 µM
- EC20 Any effect ([3]; exposure time: 4 dpf): 1.92 µM
- EC10 Pericard size Increase [4]: 5.02 µM
- EC20 LMR dark [5]: 1.72 µM
- EC50 Otolith-eye distance Decrease [6]: 5.51 µM
- EC50 Curvature Increase ([7]; exposure time: 2 dpf): 9.58 µM
- EC50 Curvature Increase ([7]; exposure time: 4 dpf): 5.85 µM
- EC10 LMR dark [8]: 1.3 µM
- EC20 Pericard size Increase [9]: 5.53 µM
- EC10 Otolith-eye distance Decrease [10]: 3.65 µM
- EC10 Curvature Increase ([11]; exposure time: 2 dpf): 6.73 µM
- EC10 Curvature Increase ([11]; exposure time: 4 dpf): 2.07 µM
- EC50 Any effect ([12]; exposure time: 2 dpf): 7.6 µM
- EC50 Any effect ([12]; exposure time: 4 dpf): 2.65 µM
- EC50 STC decrease ([12]; exposure time: 25 h): 8.34 µM
- EC20 Eye-jaw distance Decrease [13]: 2.67 µM
- EC20 Bladder size Decrease [14]: 1.69 µM
- EC20 Otolith-eye distance Decrease [15]: 4.25 µM
- EC10 Bladder size Decrease [16]: 1.46 µM
- EC20 Curvature Increase ([17]; exposure time: 2 dpf): 7.67 µM
- EC20 Curvature Increase ([17]; exposure time: 4 dpf): 3.03 µM
- EC50 Pericard size Increase [18]: 6.51 µM
- EC50 Body length Decrease ([19]; exposure time: 2 dpf): 10.3 µM
- EC50 Body length Decrease ([19]; exposure time: 4 dpf): 3.04 µM
- EC50 Yolk sac size Increase [20]: 10.1 µM
- EC10 Body length Decrease ([21]; exposure time: 2 dpf): 6.91 µM
- EC10 Body length Decrease ([21]; exposure time: 4 dpf): 2.31 µM
- EC50 LMR dark [22]: 2.77 µM
- EC10 Any effect ([23]; exposure time: 2 dpf): 5.28 µM
- EC10 Any effect ([23]; exposure time: 4 dpf): 1.6 µM
- spontaneous tail coiling frequency ([24]; 1.98167 µM): 2.65
- spontaneous tail coiling frequency ([24]; 3.96335 µM): 1.93
- spontaneous tail coiling frequency ([24]; 6.3 µM): 1.95
- spontaneous tail coiling frequency ([24]; 7.92669 µM): 1.22
- spontaneous tail coiling frequency ([24]; 9.4 µM): 1.84
- spontaneous tail coiling frequency ([24]; 14.1 µM): 1.52
- spontaneous tail coiling frequency ([24]; 15.8534 µM): 0
- spontaneous tail coiling frequency ([24]; 21.1 µM): 0
- spontaneous tail coiling frequency ([24]; 31.7 µM): 0
- spontaneous tail coiling frequency ([24]; 31.7068 µM): 0
- spontaneous tail coiling frequency ([24]; 47.6 µM): 0
- EC10 Yolk sac size Increase [25]: 3.89 µM
- EC50 Eye-jaw distance Decrease [26]: 3.73 µM
- EC50 Bladder size Decrease [27]: 2.14 µM
- EC10 Eye-jaw distance Decrease [28]: 2.2 µM
